row,Structure (SMILES),melting point
1,"Cc1ccc(NC(=O)c2ccc(CN3CCN(c4ncccn4)CC3)cc2)cc1Br [Compound 4a, N-(3-Bromo-4-methylphenyl)-4-((4-(pyrimidin-2-yl)piperazin-1-yl)methyl)benzamide]",105 °C
2,"COc1ccc(CN2CCN(Cc3ccc(C(=O)Nc4ccc(C)c(Br)c4)cc3)CC2)c(OC)c1OC [Compound 4b, N-(3-Bromo-4-metylphenyl)-4-((4-(2,3,4-trimethoxybenzyl)piperazin-1-yl)methyl)benzamide]",135 °C
3,"Cc1ccc(NC(=O)c2ccc(CN3CCOCC3)cc2)cc1Br [Compound 4c, N-(3-Bromo-4-methylphenyl)-4-(morpholinomethyl)benzamide]",116 °C

# Source: article PMC10734772 (Turkish Journal of Chemistry, 2021)
